Measured values as given in patent US20080214671A1, “Dicarbonic Acid Derivatives, Metastasis Inhibitors and Agents Increasing Chemotherapeutic Activity of Anti-Tumor Preparations, Method for Enhancing the Cytostatic Efficiency and Metastasis Process Inhibiting Method” (priority 2005, published 2008).

Key:
Type in all cases: in vivo
[1] = system: Leukemia P388; assay: P388 leukemia in BDF1 mice, combined therapy with cytostatic
Method: (§1) An experimental study of the anti-tumor activity of the FB-13 preparation as a chemosensitizer was carried out on tumor models of P388 leukemia and Lewis metastatic lung carcinoma, which can be seen in Examples 5 and 6.
Leukemia P388 was intraperitoneally inoculated to hybrid mice BDF1. The inoculum was 10^6 leukemic cells in 0.2 ml normal saline. The preparation was administered at a dose 10 mg/kg, cisplatin—at a dose 2 mg/kg on days 1, 3, 5 and 7 post transplantation. The number of cured (surviving for 60 days) animals served as an assessment criterion.
Similar studies were carried out with the preparation FB-14 (50 mg/kg) and cyclophosphane (60 mg/kg).
Furthermore, a significant increase in the average life span (ILS) of the animals as compared to the control group is shown in FIG. 4b.

[2] = system: B-16 melanoma; assay: B-16 melanoma in BDF1 mice, metastasis inhibition in the lungs
Method: Experimental B-16 melanoma was subcutaneously engrafted to hybrid mice BDF1. The inoculum was 5×10^6 tumor cells. The combined effect of FB-13 and cisplatin was investigated. The index of metastasis inhibition (IMI in %) in the lungs served as the assessment criterion. When cisplatin was administered alone, IMI was 52%, in combined administration with FB-13, it was 100%. Similar studies were carried out with hydroxamic acids based on oxalic acid (the compound L215) and based on tartaric acid (the compound L221). Tests for acute toxicity were carried out in the group of experimental oncology of the IPKhF of the RAS by intraperitoneal administration of the preparations in water to BDF1 mice. […] The use of these compounds at the minimum doses in combination with the minimum doses of cytostatics (when neither of the preparations taken alone provides a therapeutic effect) makes complete inhibition of the metastasis process in experimental B-16 melanoma or Lewis lung carcinoma possible. Furthermore, the use of dicarbonic acid oxyamides as agents for enhancing the anti-tumor effect makes it possible in a combination with the minimum amounts of oxyamide and a cytostatic (a unit dose of cytostatics being 4 times lower than a therapeutic dose) to enhance the efficacy in the treatment of P-388 leukemia (survival rate of the animals is 100%).

[3] = system: Lewis lung carcinoma; assay: Lewis lung carcinoma in BDF1 mice, metastasis inhibition in the lungs
Method: as §1
Lewis lung carcinoma was subcutaneously inoculated to hybrid mice BDF1. The inoculum was 5×10^6 tumor cells. The combined effect of FB-13 and cisplatin was investigated. The index of metastasis inhibition (IMI in %) in the lungs served as the assessment criterion. When cisplatin was administered alone, IMI was 50%, in combined administration with FB-13, it was 100% (FIG. 2).

[4] = cisplatin administered alone, s.c. inoculum 5x10^6 cells
[5] = combined administration of FB-13 with cisplatin

Compound	number of cured (surviving for 60 days) animals ([1]; only cisplatin, 2 mg/kg on days 1, 3, 5 and 7 post transplantation, i.p. inoculum 10^6 cells)	index of metastasis inhibition (IMI) in the lungs [2, 4]	index of metastasis inhibition (IMI) in the lungs [3, 4]	number of cured (surviving for 60 days) animals ([1]; combined administration: FB-13 10 mg/kg and cisplatin 2 mg/kg on days 1, 3, 5 and 7)	index of metastasis inhibition (IMI) in the lungs [2, 5]	index of metastasis inhibition (IMI) in the lungs [3, 5]
N.N.[Cl][Pt][Cl] [cisplatin]	66.7%	52%	50%	–	–	–
NC(=O)C(N)=O.O=C(O)/C=C\C(=O)O [FB-13, Maleic acid monooxamide]	–	–	–	100%	100%	100%
